Reference: patent US8518892B2, “Methods to treat symptoms of pathophysiology related to body mass” (Board of Supervisors of Louisiana State University and …, priority 2005, dated 2013)

B1: leptin (protein, UniProt P41160 22-167, looked up)
Leptin: VPIQKVQDDTKTLIKTIVTRINDISHTQSVSAKQRVTGLDFIPGLHPILSLSKMDQTLAVYQQVLTSLPSQNVLQIANDLENLRDLLHLLAFSKSCSLPQTSGLQKPESLDGVLEASLYSTEVVALSRLQGSLQDILQQLDVSPEC
notes: adipocytokine, injected into Lep^ob/Lep^ob mice

Experiments:
[1] = tested on: phosphorylation of Erk1 in fully differentiated 3T3-L1 adipocytes; assay: Erk phosphorylation in 3T3-L1 adipocytes; assay type: cell-based; conditions: 1 μg/ml Enho1^34-76, 15 minutes after application
Experimental: FIG. 11A illustrates the increase in Erk phosphorylation in 3T3-L1 adipocytes 15 minutes after the application of the secreted portion of protein Enho1 (Enho1^34-76; SEQ ID NO:10).
(§1) An experiment was conducted to test the use of a recombinant or synthetic forms of the short secreted polypeptide Enho1^34-76 (SEQ ID NO:10). A study was conducted where the response of adipocytes and hepatocytes, two potential sites of Enho1 action, to synthetic Enho1^34-76 was analyzed with changes in extracellular regulated kinase (ERK) as the measured response. ERK1/2 and p38α are important in the regulation of lipolysis and thermogenesis in adipocytes.
(§2) In addition, a shorter, second peptide was synthesized using amino acids 39 through 76 of SEQ ID NO:2, and called “Enho1^39-76” (SEQ ID NO:11).

[2] = tested on: phosphorylation of Erk1 in HepG2 cells; assay: Erk phosphorylation in HepG2 cells; assay type: cell-based; conditions: 1 μg/ml Enho1^34-76, 15 minutes after application
Experimental: FIG. 11B illustrates the increase in Erk phosphorylation in HepG2 hepatocytes 15 minutes after the application of the secreted protein Enho1 (Enho1^34-76; SEQ ID NO:10).
as §1, §2

Lep^ob/Lep^ob mice = assay: Leptin treatment of Lep^ob/Lep^ob mice, hepatic AK009710 (Enho1) mRNA by RealTime PCR; assay type: in vivo, mouse; conditions: liver of Lep^ob/Lep^ob mice, 4 injections of 0.5 mg/g leptin over 2 days, vs saline
Experimental: FIG. 3C illustrates the amount of hepatic AK009710 mRNA expression (given as a percent of expression with saline) in leptin-deficient Lep^ob/Lep^ob mice injected 4 times over 2 days with either saline or leptin (0.5 mg/g).
Quantitative RealTime PCR confirmed the microarray data showing a tendency for a modest reduction in the expression of AK009710 in liver of Mc3rKO (FIG. 3A). […] (FIG. 3C). […] Moreover, AK009710 expression correlated negatively with fasting glucose in diet-induced obese B6 mice (n=13, R^2=0.67, P<0.001) (data not shown).
Oligonucleotide primers targeted to AK009710 mRNA were utilized to measure AK009710 gene expression in liver cDNA from various mouse models of obesity and insulin resistance. Sequences of primers were: sense 5-[…]-3′ (SEQ ID NO:3), antisense 5′-[…]-3′ (SEQ ID NO:4), probe 5′-6FAM-[…]-BHQ-3′ (SEQ ID NO:5). In agreement with the initial microarray result, AK009710 mRNA was down regulated in the liver of Mc3r−/− mice compared to WT mice (by 55%, p<0.05; FIG. 3A). Next was examined the AK009710 liver mRNA expression in two other models of obesity: Mc4r−/− mice and leptin-deficient Lep^ob/Lep^ob mice. AK009710 mRNA was expressed at approximately 10-fold lower levels in both of these models compared to wild-type mice (WT) (FIG. 3B). […]

Molecule	phosphorylation of Erk1 [1]	phosphorylation of Erk1 [2]	hepatic Enho1 (AK009710) mRNA expression (Lep^ob/Lep^ob mice)
Enho1^34-76: synthetic peptide corresponding to amino acids 34 through 76 of SEQ ID NO:2, the mouse protein; secreted portion of Enho1 (CHSRSADVDSLSESSPNSSPGPCPEKAPPPQKPSHEGSYLLQP; mus sp.)	robust increase	robust increase	–
B1	–	–	significantly increased
